Measurements as given in patent US20220047773A1, “SELF-ELIMINATING COATINGS” (Interface Biologics, Inc., priority 2007, published 2022).

Test: Partitioning in 1-octanol/PBS system
Type: physicochemical
Method: The partitioning of Compounds synthesized in Examples 1-13 was measured in a 1-octanol/PBS system. The partitioning correlates with the lipophilicity of the Compounds, and is used to predict the adsorption and distribution of Compounds under investigation. 1-octanol and PBS were thoroughly mixed to provide PBS-saturated 1-octanol in the top phase and 1-octanol-saturated PBS in the bottom phase. Solutions of Compounds 1, 2, 3, 6, 7, 8, 9, 10, 11, 12, 16, PTX, and SIBS (0.05 mL) were added to each vial of 1-octanol/PBS. The vials were rocked for 4 hours, ensuring good contact between the phases. An aliquot of the organic phase from each sample was then analyzed by GPC (THF mobile phase, RI), which had been calibrated using known concentrations of each compound. The area under the RI peak was used to estimate the concentration of each compound in the organic phase. The mass of each Compound was then used to calculate the weight percentage in organic phase by the following formula: (mass of Compound in 1-octanol phase/total mass)×100%. The partition coefficient was calculated according to the following formula: log([Compound in 1-octanol]/[Compound in PBS]). […]

logD at 4 h: 1 | wt % in 1-octanol (1-octanol/PBS, rocked 4 hours, GPC of organic phase): 94%
SMILES: CC(=O)O[C@H]1C(=O)[C@@]2(C)[C@H]([C@H](OC(=O)c3ccccc3)[C@]3(O)C[C@H](OC(=O)[C@H](O)[C@@H](NC(=O)c4ccccc4)c4ccccc4)C(C)=C1C3(C)C)[C@]1(OC(C)=O)CO[C@@H]1C[C@@H]2O [PTX, paclitaxel, reference compound]
